Measurements from paper PMC2841647 (PLoS ONE, 2010).

What was measured:
mice = assay: Elevated plus-maze (EPM); assay type: in vivo, mouse; conditions: vs saline
Protocol: Mice were treated as described above before being subjected to behavioral studies. Predictive estimation for anxiolytic properties of tat-cyclotraxin-B was assessed using open field and elevated plus-maze (EPM). Antidepressant-like action of tat-cyclotraxin-B was assessed with the forced-swim test (FST). Effects of acute treatment with tat-cyclotraxin-B on spontaneous locomotion, exploration and reactivity to a novel open field was assessed in plexiglas activity chambers (Med Associates; 45×45×31 cm). Mice were placed into the center of the open field, and activity was recorded for 30 min. Testing took place under bright ambient light conditions to increase the anxiety component of the center areas of the field (defined as the central 15×15 cm portion). Mice subjected to EPM received a double 90-interval i.v. injection of tat-cyclotraxin-B or saline buffer before being placed on the platform of the EPM and assessed for 5 min (26×5×36 cm). The diazepam control group consisted of saline buffer double-treated mice that further received a 30-min i.p. injection of diazepam (1 mg/kg). Mice were assessed for number of entries and amount of time spent in open versus closed arms. The FST procedure was applied to treated mice as described by Porsolt et al. (see ref. [60]). Mice were dropped individually into glass cylinder (height, 25 cm; diameter, 10 cm) containing 10 cm water height, maintained at 23–25°C. Animals were tested for a total of 6 min. The total time of swimming, the number of climbing attempts and the time of immobility was recorded during the last 4 min of the session, after 2 min of habituation. The paroxetine control group consisted of saline buffer double-treated mice that further received a 30-min i.p. injection of paroxetine (2 mg/kg). Behaviors were recorded on videotape and scored blind.

phospho(Y816)-TrkB = molecular target: T1, phospho(Y816)-TrkB (Mus musculus, UniProt P15209); assay: Western blot with phospho(Y816)-TrkB antibody after intravenous injection; assay type: in vivo; conditions: mice, i.v. injection, vs tat-empty
T1 construct: KIRA-ELISA analysis of brain TrkB receptors from mice; from tissue; host or cells: adult Swiss mouse brain, 300-µm coronal slices
Protocol: Cell lysates were prepared in boiling SDS (2%, w/v) as described previously and subjected to SDS-PAGE. Detection and analysis of eIF4E, MAPK and Akt phosphorylation were done using anti-total and -phospho-eIF4E antibodies (1∶1000, Cell Signaling), anti-total and -phospho-MAPK antibodies (1∶1000, Cell Signaling) or anti-total and–phospho (Ser473) Akt antibodies (1∶1000, Santa Cruz; 1∶1000, Cell Signaling, respectively), respectively. For TrkB expression analysis, cortical neurons were cultured for eight days and TetOn-rhTrkB cells were incubated overnight with doxycycline. Cells were solubilized as for KIRA-ELISA assays and lysates were centrifuged at 14,000×g for 20 min at 4°C. Cleared supernatant was collected and proteins were subjected to SDS-PAGE. Detection of rhTrkB-ECFP and neuronal mouse TrkB were performed using anti-GFP polyclonal antibody (1∶5000, Clontech) and anti-rodent TrkB polyclonal antibody (1 µg/ml, Upstate), respectively. TrkB phosphorylation was quantified using anti-phospho-TrkB antibody (kindly provided by M.V. Chao). Proteins were visualized using appropriate HRP-conjugated secondary antibodies and films were quantified by densitometry.
Supplementary file pone.0009777.s009.tif: Figure S8 Protocol for in vivo KIRA-ELISA analysis after intravenous injection. […] Bands intensity have been quantified (down) Data are mean ± s.e.m. […]

TrkB in brain slices = molecular target: T2, TrkB in brain slices (Mus musculus, UniProt P15209); assay: KIRA-ELISA in brain slices incubated with peptide; assay type: cell-based; conditions: 1 µM directly added to the slice, BDNF 4 nM
T2 construct: KIRA-ELISA analysis of brain TrkB receptors from mice; from tissue; host or cells: adult Swiss mouse brain, 300-µm coronal slices
Protocol: TrkB activity was quantified using the previously described KIRA-ELISA assay with slight modifications. Cortical neurons were seeded on polyornithin-coated flat-bottom 96-well culture plates (12×10^4 cells per well) and cultured eight days at 37°C in 5% CO2. TetOn-rhTrkB cells were seeded on flat-bottom 96-well culture plates (4×10^4 cells per well) and incubated overnight with 1000 ng/ml doxycycline (Figs. S1,S2) except when indicated. Fluorescence levels in TetOn-rhTrkB cells were verified before each assay. […] Solubilized membranes were transferred for 2 h at room temperature onto ELISA microtiter plate (Nunc Maxisorp) pre-coated overnight at 4°C with appropriate antibodies [polyclonal anti-GFP (1∶5000, Clontech) for TetOn-rhTrkB, polyclonal anti-TrkB (1 µg/ml, Upstate) for cultured neurons and brain slices, for phosphorylation assays; monoclonal anti-GFP (1∶3000, Chemicon) for TetOn-rhTrkB, monoclonal anti-TrkB (1∶1000, BD Biosciences) for cultured neurons and brain slices, for total TrkB quantification]. […] Absorbance was read at 450 nm after addition of 3,3′,5′,5-tetramethyl-benzidine substrate (Sigma) and acidification with 1N hydrochloric acid.

T2 sequence (P15209 32-821): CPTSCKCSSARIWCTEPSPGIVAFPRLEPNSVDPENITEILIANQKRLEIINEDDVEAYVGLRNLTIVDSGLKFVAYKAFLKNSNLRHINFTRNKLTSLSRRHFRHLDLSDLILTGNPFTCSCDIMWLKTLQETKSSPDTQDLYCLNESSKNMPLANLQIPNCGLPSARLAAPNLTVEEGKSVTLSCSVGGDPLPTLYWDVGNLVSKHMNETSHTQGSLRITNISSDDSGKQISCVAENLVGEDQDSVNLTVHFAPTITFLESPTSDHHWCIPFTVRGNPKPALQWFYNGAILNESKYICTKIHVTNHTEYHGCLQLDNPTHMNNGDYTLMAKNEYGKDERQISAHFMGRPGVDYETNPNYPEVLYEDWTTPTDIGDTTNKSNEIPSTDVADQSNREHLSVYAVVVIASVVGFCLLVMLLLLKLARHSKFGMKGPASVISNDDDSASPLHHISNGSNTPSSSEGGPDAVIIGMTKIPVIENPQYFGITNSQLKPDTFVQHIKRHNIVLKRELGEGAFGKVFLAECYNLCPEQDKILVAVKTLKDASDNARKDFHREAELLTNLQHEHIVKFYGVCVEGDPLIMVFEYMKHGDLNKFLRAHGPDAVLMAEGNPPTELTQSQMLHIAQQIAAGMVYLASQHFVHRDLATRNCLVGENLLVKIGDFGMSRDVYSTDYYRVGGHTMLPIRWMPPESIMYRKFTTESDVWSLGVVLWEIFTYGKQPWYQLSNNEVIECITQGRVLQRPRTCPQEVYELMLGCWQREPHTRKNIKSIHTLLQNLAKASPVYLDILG
T1 sequence (P15209 32-821): as above

For “YGRKKRRQRRRCNPMGYTKEGC [tat-cyclotraxin-B]”, the “EPM number of entries in open arms” value (mice) was “significantly increased”, the “EPM time spent in open arms” value (mice) was “significantly increased” and the “reduction in phospho(Y816)-TrkB band intensity” value (phospho(Y816)-TrkB) was 37.7±4.7%. The “decrease in TrkB activity, slice incubation” value (TrkB in brain slices) was 52.0±3.9%.
